Like-named read-outs stand apart in the source and are kept apart here.
Columns and labels:
[1] = target: T1, human DP2 receptor (Homo sapiens, UniProt Q9Y5Y4); experiment: DP2/CRTH2 radioligand binding assay using [3H]PGD2
T1 construct: expressed in transfected cells
T1 sequence (Q9Y5Y4 1-395): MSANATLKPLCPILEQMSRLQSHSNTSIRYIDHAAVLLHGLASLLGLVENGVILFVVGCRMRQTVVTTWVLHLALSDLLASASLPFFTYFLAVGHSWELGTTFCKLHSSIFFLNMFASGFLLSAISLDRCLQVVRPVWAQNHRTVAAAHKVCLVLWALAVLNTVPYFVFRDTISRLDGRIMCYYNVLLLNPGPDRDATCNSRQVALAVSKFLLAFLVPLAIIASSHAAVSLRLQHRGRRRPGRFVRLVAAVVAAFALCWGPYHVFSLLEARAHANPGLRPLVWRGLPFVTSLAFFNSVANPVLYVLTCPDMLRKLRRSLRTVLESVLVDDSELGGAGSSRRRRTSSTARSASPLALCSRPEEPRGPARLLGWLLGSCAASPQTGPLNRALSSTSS
Procedure: The ability of a compound to bind to the human DP2 receptor is assessed via a radioligand binding assay using [^3H]PGD2. HEK293 cells stably expressing recombinant human DP2 are resuspended in 10 mM Hepes, 7.4 containing 1 mM DTT, lysed and centrifuged at 75,000×g to pellet the membranes. The membranes are resuspended in 10 mM Hepes, 7.4 containing 1 mM DTT and 10% glycerol to approximately 5 mg protein/ml. Membranes (2-10 μg protein/well) are incubated in 96-well plates with 1 nM [^3H]PGD2 and test compound in Assay Buffer (50 mM Hepes, 10 mM MnCl2, 1 mM EDTA, plus or minus 0.2% human serum albumin, pH 7.4) for 60 minutes at room temperature. The reactions are terminated by rapid filtration through Whatman GF/C glass fibre filter plates. The filter plates were pre-soaked in 0.33% polythylenimine for 30 minutes at room temperature then washed in Wash Buffer (50 mM Hepes, 0.5 M NaCl pH 7.4) prior to harvesting. After harvesting, the filter plates are washed 3 times with 1 ml cold Wash Buffer then dried. Scintillant is then added to the plates and the radioactivity retained on the filters is determined on a Packard TopCount (Perkin Elmer). Specific binding is determined as total radioactive binding minus non-specific binding in the presence of 10 μM PGD2. IC50s were determined using GraphPad prism analysis of drug titration curves.

[2] = target: T2, human DP1 receptor (Homo sapiens, UniProt Q13258); experiment: DP1 radioligand membrane binding assay using [3H]BWA868C; details: [3H]BWA868C binding, human platelet membranes; read-out: hDP1
T2 construct: tissue Biological Specialty Corporation; host or cells: human platelets, membranes
T2 sequence (Q13258 1-359): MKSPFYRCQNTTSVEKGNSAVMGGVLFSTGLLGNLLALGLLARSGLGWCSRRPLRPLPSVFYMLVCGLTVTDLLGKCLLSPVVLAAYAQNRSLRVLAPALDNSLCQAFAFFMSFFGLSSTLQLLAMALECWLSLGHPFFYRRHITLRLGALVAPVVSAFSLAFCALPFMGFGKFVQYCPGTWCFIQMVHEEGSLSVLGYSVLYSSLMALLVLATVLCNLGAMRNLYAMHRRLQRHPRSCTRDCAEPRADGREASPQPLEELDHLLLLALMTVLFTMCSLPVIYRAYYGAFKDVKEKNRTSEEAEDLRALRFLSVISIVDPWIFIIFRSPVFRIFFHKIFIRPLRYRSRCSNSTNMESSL
Procedure: The ability of a compound to bind to the human DP1 receptor was evaluated via a radioligand membrane binding assay using the DP1 selective synthetic ligand [^3H]BWA868C. Packed human platelets (Biological Specialty Corporation), were resuspended in 6 volumes of Hepes/HBSS buffer (10 mM Hepes, 1 mM DTT in Hanks Balanced Salt Solution (HBSS)), lysed and centrifuged at 75,000×g to pellet the membranes. Membranes were resuspended in Hepes/HBSS buffer to approximately 12 mg protein/ml. Membranes (20 μg protein/well) are incubated in 96-well plates with 2 nM [^3H]BWA868C and test compound in Assay Buffer (50 mM Hepes, 10 mM MnCl2, 1 mM EDTA, plus or minus 0.2% human serum albumin, pH 7.4) for 60 minutes at room temperature. The reactions are terminated by rapid filtration through Whatman GF/C glass fibre filter plates. The filter plates were pre-soaked in […] polethylenimine for 30 minutes at room temperature then washed in Wash Buffer (50 mM Hepes, 0.5 M NaCl pH 7.4) prior to harvesting. After harvesting, the filter plates are washed 3 times with 1 ml cold Wash Buffer then dried. Scintillant is then added to the plates and the radioactivity retained on the filters is determined on a Packard TopCount (Perkin Elmer). Specific binding is determined as total radioactive binding minus non-specific binding in the presence of 10 μM BWA868C. IC50s were determined using GraphPad prism analysis of drug titration curves.

[3] = [3H]PGD2 binding, membranes of HEK293 cells expressing recombinant human DP2, read-out: hDP2

SMILES | IC50 [1, 3] [nM] | IC50 [2] [nM] | IC50 [1] [nM]
CCN(Cc1cc(C(F)(F)F)ccc1-c1cc(CC(=O)O)ccc1OC)C(=O)NCc1ccc(F)cc1 [Compound 1-176, {2′-[1-Ethyl-3-(4-fluoro-benzyl)-ureidomethyl]-6-methoxy-4′-trifluoromethyl-biphenyl-3-yl}-acetic acid] | < 300 | > 1000 | 
CCN(Cc1cc(C(F)(F)F)ccc1-c1cc(CC(=O)O)ccc1OC)C(=O)NCc1cccc(Cl)c1 [Compound 1-177, {2′-[3-(3-Chloro-benzyl)-1-ethyl-ureidomethyl}-6-methoxy-4′-trifluoromethyl-biphenyl-3-yl}-acetic acid] | < 300 | > 1000 | 
CCN(Cc1cc(C(F)(F)F)ccc1-c1cc(CC(=O)O)ccc1OC)C(=O)NCc1cc(F)cc(F)c1 [Compound 1-178, {2′-[3-(3,5-Difluoro-benzyl)-1-ethyl-ureidomethyl]-6-methoxy-4′-trifluoromethyl-biphenyl-3-yl}-acetic acid] | < 300 | > 1000 | 
CCN(Cc1cc(C(F)(F)F)ccc1-c1cccc(CC(=O)O)c1)C(=O)OCc1ccccc1 [Compound 1-143, {2′-[(Benzyloxycarbonyl-ethyl-amino)-methyl]-4′-trifluoromethyl-biphenyl-3-yl}-acetic acid] | < 300 | 300 to 1000 | 
COc1ccc(CC(=O)O)cc1-c1ccc(C(F)(F)F)cc1CN(C(=O)OCc1ccccc1)C1CCC1 [Compound 1-34, {2′-[(Benzyloxycarbonyl-cyclobutyl-amino)-methyl]-6-methoxy-4′-trifluoromethyl-biphenyl-3-yl}-acetic acid] |  | > 1000 | 
CCN(Cc1cc(C(F)(F)F)ccc1-c1cc(CC(=O)O)ccc1OC)C(=O)C1CC1 [Compound 1-33, {2′-[(Cyclopropanecarbonyl-ethyl-amino)-methyl]-6-methoxy-4′-trifluoromethyl-biphenyl-3-yl}-acetic acid] |  | > 1000 | < 300
COc1ccc(CC(=O)O)cc1-c1ccc(C(F)(F)F)cc1CN(C(=O)OCc1ccccc1)C1CC1 [Compound 1-36, {2′-[(Benzyloxycarbonyl-cyclopropyl-amino)-methyl]-6-methoxy-4′-trifluoromethyl-biphenyl-3-yl}-acetic acid] |  | > 1000 | 
CCN(Cc1cc(C(F)(F)F)ccc1-c1cc(CC(=O)O)ccc1OC)C(=O)OCc1ccccc1 [Compound 1-28, {2′-[(Benzyloxycarbonyl-ethyl-amino)-methyl]-6-methoxy-4′-trifluoromethyl-biphenyl-3-yl}-acetic acid] |  | > 1000 | 
CCN(Cc1cc(C(F)(F)F)ccc1-c1cc(CC(=O)O)ccc1OC)C(=O)OCc1cc(Cl)cc(Cl)c1 [Compound 1-38, (2′-{[(3,5-Dichloro-benzyloxycarbonyl)-ethyl-amino]-methyl}-6-methoxy-4′-trifluoromethyl-biphenyl-3-yl)-acetic acid] |  | > 1000 | 
CCN(Cc1cc(C(F)(F)F)ccc1-c1cc(CC(=O)O)ccc1OC)C(=O)OCc1ccc(F)cc1 [Compound 1-41, (2′-{[Ethyl-(4-fluoro-benzyloxycarbonyl)-amino]-methyl}-6-methoxy-4′-trifluoromethyl-biphenyl-3-yl)-acetic acid] |  | > 1000 | 

Further lines, with some results ahead:

IC50 [1, 3] [nM] | IC50 [2] [nM] | SMILES | IC50 [1] [nM]
< 300 |  | CCN(Cc1cc(C(F)(F)F)ccc1-c1cc(CC(=O)O)ccc1OC)C(=O)NCc1ccc(O)cc1 [Compound 1-252, {2′-[1-Ethyl-3-(4-hydroxy-benzyl)-ureidomethyl]-6-methoxy-4′-trifluoromethyl-biphenyl-3-yl}-acetic acid] | 
< 300 |  | CCN(Cc1cc(C(=O)O)ccc1-c1cc(CC(=O)O)ccc1OC)C(=O)OCc1ccccc1 [Compound 1-226, 2-[(Benzyloxycarbonyl-ethyl-amino)-methyl]-5′-carboxymethyl-2′-methoxy-biphenyl-4-carboxylic acid] | 
< 300 |  | CCN(Cc1cc(C(F)(F)F)ccc1-c1cc(CC(=O)O)ccc1OC)C(=O)NCc1ccccc1O [Compound 1-253, {2′-[1-Ethyl-3-(2-hydroxy-benzyl)-ureidomethyl]-6-methoxy-4′-trifluoromethyl-biphenyl-3-yl}-acetic acid] | 
< 300 |  | CCN(Cc1cc(C(F)(F)F)ccc1-c1cccc(CC(=O)O)c1)C(=O)C1CC1 [Compound 1-244, {2′-[(Cyclopropanecarbonyl-ethyl-amino)-methyl]-4′-trifluoromethyl-biphenyl-3-yl}-acetic acid] | 
< 300 |  | CCN(Cc1cc(C(C)(C)O)ccc1-c1cc(CC(=O)O)ccc1OC)C(=O)OCc1ccccc1 [Compound 1-216, [2′-[(Benzyloxycarbonyl-ethyl-amino)-methyl]-4′-(1-hydroxy-1-methyl-ethyl)-6-methoxy-biphenyl-3-yl]-acetic acid] | 
> 1000 |  | CCN(Cc1cc(C(F)(F)F)ccc1-c1cc(CC(=O)O)ccc1OC)C(=O)C(C)(C)C [Compound 1-245, (2′-{[(2,2-Dimethyl-propionyl)-ethyl-amino]-methyl}-6-methoxy-4′-trifluoromethyl-biphenyl-3-yl)-acetic acid] | 
< 300 |  | CCN(Cc1cc(C(F)(F)F)ccc1-c1cc(CC(=O)O)ccc1OC)C(=O)C1CCC1 [Compound 1-206, {2′-[(Cyclobutanecarbonyl-ethyl-amino)-methyl]-6-methoxy-4′-trifluoromethyl-biphenyl-3-yl}-acetic acid] | 
< 300 | > 1000 | CCNC(=O)N(CC)Cc1cc(C(F)(F)F)ccc1-c1cc(CC(=O)O)ccc1OC [Compound 1-181, [2′-(1,3-Diethyl-ureidomethyl)-6-methoxy-4′-trifluoromethyl-biphenyl-3-yl]-acetic acid] | 
< 300 | > 1000 | CCN(Cc1cc(F)ccc1-c1cc(CC(=O)O)ccc1OC)C(=O)OCc1ccccc1 [Compound 1-183, {2′-[(Benzyloxycarbonyl-ethyl-amino)-methyl]-4′-fluoro-6-methoxy-biphenyl-3-yl}-acetic acid] | 
< 300 |  | CCN(Cc1cc(SC)ccc1-c1cc(CC(=O)O)ccc1OC)C(=O)C1CC1 [Compound 1-241, {2′-[(Cyclopropanecarbonyl-ethyl-amino)-methyl]-6-methoxy-4′-methylsulfanyl-biphenyl-3-yl}-acetic acid] | 
< 300 |  | CCN(Cc1cc(Br)ccc1-c1cc(CC(=O)O)ccc1OC)C(=O)C1CC1 [Compound 1-247, {4′-Bromo-2′-[(cyclopropanecarbonyl-ethyl-amino)-methyl]-6-methoxy-biphenyl-3-yl}-acetic acid] | 
< 300 |  | CCN(Cc1cc(C(F)(F)F)ccc1-c1cc(CC(=O)O)ccc1OC)C(=O)NCc1cccc(O)c1 [Compound 1-257, {2′-[1-Ethyl-3-(3-hydroxy-benzyl)-ureidomethyl]-6-methoxy-4′-trifluoromethyl-biphenyl-3-yl}-acetic acid] | 
< 300 |  | CCN(Cc1cc(S(C)(=O)=O)ccc1-c1cc(CC(=O)O)ccc1OC)C(=O)OCc1ccccc1 [Compound 1-215, {2′-[(Benzyloxycarbonyl-ethyl-amino)-methyl]-4′-methanesulfonyl-6-methoxy-biphenyl-3-yl}-acetic acid] | 
